Data on six compounds can be found in US20090182133A1 (priority 2005, published 2009).

Molecules are shown by their SMILES. “Also recorded” adds a separate entry of the source. Where two headings read alike, the source gives them in different places.

In one series the target is HCV 3CL proteinase (Human coronavirus 229E, UniProt P0C6X1). The experiment in a line: biochemical. The format is binding, common cold virus (HCoV-229E antigenic type).
In series [1] the target is T1, SARS 3CL proteinase (Severe acute respiratory syndrome coronavirus, UniProt P0C6X7). The experiment in a line: biochemical. Details: species or system SARS-CoV.
The target of series [2] is T1, SARS 3CL proteinase. The experiment in a line: biochemical. The format is binding, SARS-CoV.

Sequence of HCV 3CL proteinase (P0C6X1 2966-3267 limits assumed): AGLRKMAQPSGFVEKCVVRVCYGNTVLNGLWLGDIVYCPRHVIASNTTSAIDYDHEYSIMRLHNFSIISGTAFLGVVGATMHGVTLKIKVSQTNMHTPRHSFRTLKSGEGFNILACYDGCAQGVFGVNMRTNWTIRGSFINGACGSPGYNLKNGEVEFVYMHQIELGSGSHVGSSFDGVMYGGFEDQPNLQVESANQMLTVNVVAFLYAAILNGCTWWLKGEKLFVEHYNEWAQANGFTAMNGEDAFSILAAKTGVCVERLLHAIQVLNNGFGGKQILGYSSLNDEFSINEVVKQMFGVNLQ

Take `O=c1c(O[C@@H]2O[C@H](CO)[C@@H](O)[C@H](O)[C@H]2O)c(-c2ccc(O)c(O)c2)oc2cc(O)cc(O)c12` [IA-1, Quercetin-3-O-β-D-glucopyranoside]: on HCV 3CL proteinase, binding was put at a Kd of 28.8 µM and the “affinity with HCV 3CL proteinases (in words)” value was “weaker affinity”.
Turning to `O=c1c(O[C@@H]2OC[C@@H](O)[C@@H](O)[C@@H]2O)c(-c2ccc(O)c(O)c2)oc2cc(O)cc(O)c12` [IA-3, Quercetin-3-O-β-D-arabinopyranoside], half-maximal inhibition on SARS 3CL proteinase [1] (IC50) required 31.6 µM. On HCV 3CL proteinase, binding was characterised by a dissociation constant (Kd) of 3.76 µM and the “affinity with HCV 3CL proteinases (in words)” value is on record as “high affinity”. In addition, at SARS 3CL proteinase [2], the Kd came out at 13.2 µM and the “coupling/affinity with SARS 3CL (in words)” value (“coupling/affinity” for short) was “couple strongly”.
`C[C@H]1O[C@@H](Oc2c(-c3ccc(O)c(O)c3)oc3cc(O)cc(O)c3c2=O)[C@H](O)[C@@H](O)[C@H]1O` [IA-4, Quercetin-3-O-β-D-fucopyranoside] showed an IC50 on SARS 3CL proteinase [1] of 24.1 µM. For the same compound, on HCV 3CL proteinase, the Kd turned out to be 5.75 µM and the “affinity with HCV 3CL proteinases (in words)” value is “high affinity”. In addition, at SARS 3CL proteinase [2], the Kd was 104 µM and the “coupling/affinity” value was “couple strongly; also recorded: weaker affinity”.
`O=c1c(OC2CCCCC2)c(-c2ccc(O)c(O)c2)oc2cc(O)ccc12` [IB-1, 3-O-cyclohexyl-3′,4′,7-trihydroxy-flavonol] showed a melting point of 98 to 100 °C. Further, the IC50 against SARS 3CL proteinase [1] amounted to 33.1 µM. On HCV 3CL proteinase, binding was put at a Kd of 3.52 µM and the “affinity with HCV 3CL proteinases (in words)” value is listed as “high affinity”. Also, on SARS 3CL proteinase [2], the Kd came out at 33.7 µM and the “coupling/affinity” value was “couple strongly”.
Consider `O=c1c(OC2CCCCCC2)c(-c2ccc(O)c(O)c2)oc2cc(O)ccc12` [IB-3, 3-O-cycloheptyl-3′,4′,7-trihydroxy-flavonol], for which the melting point fell in the range of 68 to 71 °C. On HCV 3CL proteinase, the Kd is 1.51 µM and the “affinity with HCV 3CL proteinases (in words)” value is recorded as “high affinity”. On SARS 3CL proteinase [2], binding was characterised by a dissociation constant (Kd) of 33.5 µM and the “coupling/affinity” value is “couple strongly”.
As for `O=c1c(OCC2COc3ccccc3O2)c(-c2cc(O)cc(O)c2)oc2cc(O)ccc12` (stereo not drawn) [IB-4, 3-(2,3-dihydro-benzo[1,4]dioxan-2-yl-methoxy)-3′,5′,7-trihydroxy-flavonol], the “affinity with HCV 3CL proteinases (in words)” value on HCV 3CL proteinase is “high affinity”. Further, the Kd on HCV 3CL proteinase (read-out: KD HCV 3CL) worked out at 2.6 µM; on SARS 3CL proteinase [2] (read-out: KD SARS 3CL), 16.8 µM. The “coupling/affinity” value on SARS 3CL proteinase [2] was “couple strongly”.
